# In patent EP3390415B1, “(R)- AND (S)-1-(3-(3-N,N-DIMETHYLAMINOCARBONYL)PHENOXYL-4-NITROPHENYL)-1-ETHYL-N,N'-BIS (ETHYLENE)PHOSPHORAMIDATE, COMPOSITIONS AND METHODS FOR THEIR USE AND PREPARATION” (OBI PHARMA, INC., priority 2015, dated 2017):
# Where two headings read alike, the source gives them in different places.
# Columns and labels:
# Test in all cases: In vitro human tumor cell line cytotoxicity assay
# Assay type in all cases: cell-based
# HepG2 = settings: for IC50: Homo sapiens
# C3A = settings: for IC50: Homo sapiens
# PLCPRF5 = settings: for IC50: Homo sapiens
# ATN-1 = settings: read-out: RelIC50
# Protocol: (§1) TH 2870, TH 3423 and TH 3424 was also tested in different cancer cell lines using the materials and procedures as follows. 10* cell lysate buffer (cell signaling technology, Cat. No.9803); Protease Inhibitor Cocktail for Mammalian Tissues (Sigma, Cat. No.P8340); Phosphatase Inhibitor Cocktails for Serine/Threonine Phosphatases and L-Isozymes of Alkaline Phosphatases (Sigma, Cat. No.P0044); Phosphatase Inhibitor Cocktails for Tyrosine Protein Phosphatases, Acid and Alkaline Phosphatases (Sigma, Cat. No.P5726); BCA kit (Thermo, Cat. No.23225); Primary antibody, mouse monoclonal AKR1C3 antibody (clone NP6.G6.A6; Sigma-Aldrich); Primary antibody, α-tubulin (clone B-5-1-2; Sigma-Aldrich); Secondary antibody, Goat-anti-Mouse IgG HRP conjugated (A4416; Sigma-Aldrich) were used. Cells were passaged two generations in good condition and digested. The appropriate number of cells were inoculated in 6-cm cell culture dishes, and incubated at 37°C, 5% CO2 overnight. When the cells were grown to 80% density, the dish was removed from incubator. The medium was aspirated, washed twice with ice-cold PBS, and residual PBS was removed. An appropriate volume of ice-cold 1* cell lysate was added and incubated on ice for 10 minutes. Cell lysate was transferred to microfuge tubes chilled in ice, 4 °C, 12,000 rpm and centrifuged for 15 minutes. Supernatant was transferred into another microcentrifuge tube. Cell lysates were diluted by a 10* cell lysates, and add Protease Inhibitor Cocktail for Mammalian Tissues (Sigma, # P8340), Phosphatase Inhibitor Cocktails for Serine / Threonine Phosphatases and L-Isozymes of Alkaline Phosphatases, Phosphatase Inhibitor Cocktails for Tyrosine Protein Phosphatases, Acid and Alkaline Phosphatases. The BCA protein quantification kit for protein quantification was used with 1* cell lysate to dilute the cell lysate to the same concentration. Corresponding samples were added on 5* SDS-loading buffer, heated to 85 °C for 10 minutes, and centrifuged briefly. The samples were saved at -20 °C or used directly for protein electrophoresis. Those samples were electrophoresed according to standard practice, transferred to a membrane, the primary antibodies and then secondary antibody were applied according to the manufacturer's instructions. Odyssey infrared laser imaging system was used to scan signals.
# (§2) The results are shown below in Figs. 3 and 4 and listed in the following tables: Table: TH 2870, TH 3423 and TH 3424 sensitivity in liver, prostate, esophageal cancer and leukemia cell lines
# CCRF-CEM = settings: read-out: RelIC50
# Protocol: as §1, §2
# HL-60 = settings: read-out: RelIC50
# Protocol: as §1, §2
# KYSE 510 = settings: read-out: RelIC50
# Protocol: as §1, §2
# Mono-Mac-6_ = settings: read-out: RelIC50
# Protocol: as §1, §2
# OE 33 = settings: OE33, read-out: RelIC50
# Protocol: as §1, §2
# P116 = settings: read-out: RelIC50
# Protocol: as §1, §2
# PF-382 = settings: read-out: RelIC50
# Protocol: as §1, §2
# Reh 3 = settings: read-out: RelIC50
# Protocol: as §1, §2
# SUP-T1 = settings: read-out: RelIC50
# Protocol: as §1, §2
# TE-11 = settings: read-out: RelIC50
# Protocol: as §1, §2
# TE-15 = settings: read-out: RelIC50
# Protocol: as §1, §2
# TE-5 = settings: read-out: RelIC50
# Protocol: as §1, §2
# THP-1_ = settings: read-out: RelIC50
# Protocol: as §1, §2
# TE-14 = settings: read-out: RelIC50
# OE 21 = settings: OE21, read-out: RelIC50
# T.T = settings: TT, read-out: RelIC50
# TE-6 = settings: read-out: RelIC50
# TE-4 = settings: read-out: RelIC50
# COLO680N = settings: COLO-680N, read-out: RelIC50
# EC-GI-10 = settings: read-out: RelIC50
# MOLT-4 = settings: read-out: RelIC50
# Jurkat, Clone E6-1 = settings: read-out: RelIC50
smiles,measurement,setting,value
"C[C@H](OP(=O)(N1CC1)N1CC1)c1ccc([N+](=O)[O-])c(Oc2cccc(C(=O)N(C)C)c2)c1 (single isomer, unassigned) [TH3424]",Max Inhibition%,HepG2,100.2%
same,Min Inhibition%,HepG2,3.4%
same,IC50,HepG2; read-out: AbsIC50,8.6 nM
same,IC50,HepG2; read-out: RelIC50,7.3 nM
same,Max Inhibition%,C3A,98.7%
same,Min Inhibition%,C3A,-2.1%
same,IC50,C3A; read-out: AbsIC50,9.3 nM
same,IC50,C3A; read-out: RelIC50,4.1 nM
same,Max Inhibition%,PLCPRF5,85.2%
same,Min Inhibition%,PLCPRF5,1.4%
same,IC50,"PLCPRF5; PLC-PRF-5, read-out: AbsIC50",111 nM
same,IC50,"PLCPRF5; PLC-PRF-5, read-out: RelIC50",128 nM
same,IC50,ATN-1,29.8 nM
same,IC50,CCRF-CEM,3.7 nM
same,IC50,HL-60,3 nM
same,IC50,KYSE 510,180 nM
same,IC50,Mono-Mac-6_,> 1000 nM
same,IC50,OE 33,84 nM
same,IC50,P116,84 nM
same,IC50,PF-382,15 nM
same,IC50,Reh 3,3 nM
same,IC50,SUP-T1,3 nM
same,IC50,TE-11,2.7 nM
same,IC50,TE-15,2.9 nM
same,IC50,TE-5,33 nM
same,IC50,THP-1_,> 1000 nM
same,IC50,TE-14,4.7 nM
same,IC50,OE 21,5.2 nM
same,IC50,T.T,6 nM
same,IC50,TE-6,21 nM
same,IC50,TE-4,9.9 nM
same,IC50,COLO680N,66 nM
same,IC50,EC-GI-10,13 nM
same,IC50,MOLT-4,10 nM
same,IC50,"Jurkat, Clone E6-1",24 nM
